According to article PMC9040839 (mBio, 2022):
“And” between values parts separate entries of the source, which are not always exact repeats. Equal entries are not always repeated. “Also recorded” adds a separate entry of the source. Where two headings read alike, the source gives them in different places.

How the values were obtained:
P. atrosepticum SCRI1043 = assay: Capillary chemotaxis assay; type: cell-based, Pectobacterium atrosepticum; conditions: 1 mM chemoeffector
Procedure: (§1) Overnight cultures in M9 minimal medium supplemented with 6 mg/L Fe-citrate, trace elements ([89]), and 15 mM glucose were used to inoculate fresh medium to an OD660 of 0.05. Cells were cultured at 30°C (Pectobacterium atrosepticum, Pantoea agglomerans, Serratia plymuthica, Pseudomonas stutzeri, Agrobacterium tumefaciens, Dickeya solani, Pseudomonas savastanoi pv. savastanoi) or 37°C (P. aeruginosa, E. coli, Salmonella enterica serovar Typhimurium) to an OD660 of 0.4 to 0.5. Subsequently, cells were washed twice by centrifugation (1,667 × g for 5 min at room temperature) and resuspension in chemotaxis buffer (50 mM KH2PO4/K2HPO4, […], 0.05% [vol/vol] glycerol, pH 7.0) and then resuspended in the same buffer at an OD660 of 0.1. Aliquots (230 μL) of the resulting cell suspension were placed into the wells of 96-well microtiter plates. Then, 1-μL capillaries (Microcaps, Drummond Scientific) were heat-sealed at one end and filled with buffer (control) or chemoeffector solution prepared in chemotaxis buffer. The capillaries were rinsed with sterile water and immersed into the bacterial suspensions at their open ends. After 30 min, capillaries were removed from the wells, rinsed with sterile water, and emptied into 1 mL of chemotaxis buffer. Serial dilutions were plated onto M9 minimal medium plates supplemented with 20 mM glucose, incubated at 30°C or 37°C prior to colony counting. Data were corrected with the number of cells that swam into buffer containing capillaries. Data are the means and standard deviations of three biological replicates conducted in triplicate.

PacA(ECA_RS10935)-LBD = PacA(ECA_RS10935)-LBD (Pectobacterium atrosepticum, UniProt Q6D515); assay: Isothermal titration calorimetry of PacA-LBD with ligands; type: binding, P. atrosepticum SCRI1043; conditions: ITC, 25°C, pH 7.0
Sequence of PacA(ECA_RS10935)-LBD (Q6D515 entry or part of it): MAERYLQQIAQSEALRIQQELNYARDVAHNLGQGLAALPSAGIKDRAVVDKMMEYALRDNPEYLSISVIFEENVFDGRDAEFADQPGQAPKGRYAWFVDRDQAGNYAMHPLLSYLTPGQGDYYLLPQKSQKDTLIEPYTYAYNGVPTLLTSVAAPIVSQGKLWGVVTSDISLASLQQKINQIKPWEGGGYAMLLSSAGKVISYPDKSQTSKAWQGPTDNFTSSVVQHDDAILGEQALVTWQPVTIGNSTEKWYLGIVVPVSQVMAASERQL
Procedure: Measurements were made using a VP-ITC microcalorimeter (MicroCal, Inc., Northampton, MA) at 25°C. PA4633-LBD was dialyzed into 5 mM Tris, 5 mM PIPES [piperazine-N,N′-bis(2-ethanesulfonic acid)], 5 mM MES (morpholineethanesulfonic acid), 150 mM NaCl, 10% (vol/vol) glycerol, pH 7.5, whereas ECA_RS10935-LBD was dialyzed into 40 mM KH2PO4/K2HPO4, 10% (vol/vol) glycerol, pH 7.0. Proteins at 15 to 22 μM were placed into the sample cell and titrated with 9.6-μL aliquots of 0.5 to 10 mM ligand solutions made up in dialysis buffer. […] The mean enthalpies from the injection of ligands into the buffer were subtracted from raw data prior to data fitting using the “one binding site model” of the MicroCal version of the ORIGIN software.

P. aeruginosa PAO1 [1] = type: cell-based, Pseudomonas aeruginosa; conditions: capillary assay; for concentration of maximal chemotaxis response / response threshold of chemotaxis: 30 min; for maximal accumulation: at 10 μM
Procedure: as §1

PctD-Tar hybrid = PctD-Tar hybrid (Pseudomonas aeruginosa, UniProt Q9HVF8); assay: cell-based
Sequence of PctD-Tar hybrid (Q9HVF8 entry or part of it): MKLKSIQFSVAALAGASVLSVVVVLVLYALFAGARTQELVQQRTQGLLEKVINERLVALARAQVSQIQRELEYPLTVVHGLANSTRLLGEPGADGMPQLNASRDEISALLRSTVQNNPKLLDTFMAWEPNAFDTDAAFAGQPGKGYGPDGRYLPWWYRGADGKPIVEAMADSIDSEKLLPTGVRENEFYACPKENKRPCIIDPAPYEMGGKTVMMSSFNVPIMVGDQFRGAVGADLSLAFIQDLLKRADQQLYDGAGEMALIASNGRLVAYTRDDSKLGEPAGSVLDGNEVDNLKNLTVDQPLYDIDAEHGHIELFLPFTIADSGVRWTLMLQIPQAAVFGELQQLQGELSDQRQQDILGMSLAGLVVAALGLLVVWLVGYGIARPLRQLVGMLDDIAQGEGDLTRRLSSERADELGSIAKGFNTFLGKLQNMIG
Sequence of PctD-Tar hybrid (P07017 267-553, further chain): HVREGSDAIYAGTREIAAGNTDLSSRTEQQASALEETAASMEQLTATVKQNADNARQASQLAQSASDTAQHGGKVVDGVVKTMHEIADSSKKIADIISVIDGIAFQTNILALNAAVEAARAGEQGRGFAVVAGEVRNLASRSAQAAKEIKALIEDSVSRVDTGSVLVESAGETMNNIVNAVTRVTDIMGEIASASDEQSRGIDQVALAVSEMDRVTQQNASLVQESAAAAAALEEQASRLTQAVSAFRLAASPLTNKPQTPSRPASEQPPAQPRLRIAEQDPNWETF

PctD(PA4633)-LBD = PctD(PA4633)-LBD (Pseudomonas aeruginosa, UniProt Q9HVF8); assay: biochemical; conditions: for KD / ΔH: ITC, 25°C, pH 7.5
Sequence of PctD(PA4633)-LBD (Q9HVF8 entry or part of it): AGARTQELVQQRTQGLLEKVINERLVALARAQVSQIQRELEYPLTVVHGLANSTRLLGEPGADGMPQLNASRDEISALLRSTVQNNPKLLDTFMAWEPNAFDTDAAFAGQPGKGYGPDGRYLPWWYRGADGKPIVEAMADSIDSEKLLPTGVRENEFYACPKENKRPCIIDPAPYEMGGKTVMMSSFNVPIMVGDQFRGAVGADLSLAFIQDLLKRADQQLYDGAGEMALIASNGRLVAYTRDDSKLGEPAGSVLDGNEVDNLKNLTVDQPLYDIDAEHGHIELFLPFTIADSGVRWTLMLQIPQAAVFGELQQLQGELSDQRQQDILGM
Procedure: Measurements were made using a VP-ITC microcalorimeter (MicroCal, Inc., Northampton, MA) at 25°C. […] The mean enthalpies from the injection of ligands into the buffer were subtracted from raw data prior to data fitting using the “one binding site model” of the MicroCal version of the ORIGIN software.

P. aeruginosa = conditions: cited from earlier work
TlpQ = conditions: cited from earlier work
Dickeya solani MK10 = assay: Capillary chemotaxis assay; type: cell-based; conditions: 1 mM acetylcholine
Procedure: as §1, with “Data were corrected with the number of cells that swam into buffer containing capillaries. Data are the means and standard deviations of three biological replicates conducted in triplicate.” left out

[2] = tested on: Agrobacterium tumefaciens C58; assay: Capillary chemotaxis assay; type: cell-based; conditions: 1 mM acetylcholine
Procedure: as §1, with “Data were corrected with the number of cells that swam into buffer containing capillaries. Data are the means and standard deviations of three biological replicates conducted in triplicate.” left out

[3] = tested on: E. coli strain UU1250 expressing PctD-Tar; type: cell-based
Procedure: The microfluidic assay was performed as previously described, using a chip with 24 parallel microchannels ([105]). […]. Cells were harvested by centrifugation and washed twice with tethering buffer. Chemoeffectors were dissolved in tethering buffer at a concentration of 50 mM, and the pH was adjusted to 7.0. The chemical source microchannels were filled with 4% (wt/vol) agarose gel to create a semipermeable barrier. E. coli cells were added to the reservoir well and allowed to spread for 30 min into the channels. Compounds were added to the source well and allowed to form a concentration gradient. Cell fluorescence was recorded with a Ti-E inverted microscope system (Nikon Instruments Europe BV, Amsterdam, Netherlands) using a 20×lens objective. Data were analyzed using ImageJ (Wayne Rasband, NIH, USA).

BmrR = molecular target: BmrR; set-up: method as in PMID 21690368; conditions: cited from earlier work
P. aeruginosa PAO1 [4] = assay: Growth experiments with Biolog compound array PM2A; type: cell-based, Pseudomonas aeruginosa; conditions: M9 minimal medium, 96-well plate, 48 h, 37°C
Procedure: PAO1 was grown overnight in M9 minimal medium containing 10 mM glucose. Cultures were washed twice and then diluted to an OD600 of 0.02 in either M9 or M8 medium (M9 minimal medium without NH4Cl) containing 10 mM glucose and medium supplemented with each of the compounds present in the Biolog compound array PM2A (https://www.biolog.com/wp-content/uploads/2020/04/00A-042-Rev-C-Phenotype-MicroArrays-1-10-Plate-Maps.pdf) as sole carbon source. Then, 200 μL of these cultures were transferred into microwell plates, and growth at 37°C was followed on a Bioscreen microbiological growth analyzer (Oy Growth Curves Ab Ltd., Helsinki, Finland).

SMILES	chemotaxis response (P. atrosepticum SCRI1043)	Kd (PacA(ECA_RS10935)-LBD) [µM]	ΔH (PacA(ECA_RS10935)-LBD)	chemoattraction (P. aeruginosa PAO1 [1])	EC50 (PctD-Tar hybrid) [µM]	Kd (PctD(PA4633)-LBD) [µM]	KD (PctD(PA4633)-LBD)	ΔH (PctD(PA4633)-LBD)	concentration of maximal chemotaxis response (P. aeruginosa PAO1 [1]) [µM]	response threshold of chemotaxis (P. aeruginosa PAO1 [1]) [µM]	maximal accumulation (P. aeruginosa PAO1 [1])	further results
C[N+](C)(C)CC(=O)O [betaine]	low but reproducible chemotaxis	7.5 ± 0.1	-16.1 ± 0.1 kcal/mol	comparable to that of L-carnitine	150 ± 25	990 ± 59	low affinity	-2.4 ± 4.1 kcal/mol				
NCCc1c[nH]cn1 [histamine]												lowest concentration giving attraction (P. aeruginosa): 500 nM; Kd (TlpQ): 0.64 µM and 1.2 µM
CC(=O)OCC[N+](C)(C)C [acetylcholine]	failed to respond		No binding					-12.2 ± 1.0 kcal/mol	10	1	~300,000 bacteria per capillary	magnitude of chemotaxis (Dickeya solani MK10): about a third of that observed in P. aeruginosa; magnitude of chemotaxis [2]: comparable to that in P. aeruginosa; chemoattraction in microfluidic assay ([3]; 50 mM in source channel): much stronger chemoattraction; KD (PacA(ECA_RS10935)-LBD): fails to recognize; also recorded: absence of binding; KD (PacA(ECA_RS10935)-LBD; listed as Acetylcholine): No binding; Kd (BmrR): 6.6 µM
C[N+](C)(C)CCO [choline]	low but reproducible chemotaxis	113 ± 16.4	-2.1 ± 0.2 kcal/mol		0.04 ± 0.01	2.6 ± 0.1		-20.3 ± 0.3 kcal/mol	10	0.1	~300,000 bacteria per capillary	chemoattraction in microfluidic assay [3]: much stronger chemoattraction
C[N+](C)(C)C[C@H](O)CC(=O)[O-] [L-carnitine]	low but reproducible chemotaxis	20 ± 2	-4.9 ± 0.4 kcal/mol	chemoattraction	31 ± 6		No response; also recorded: could not be visualized; also recorded: No binding	No binding	10000	100		growth as carbon source (P. aeruginosa PAO1 [4]): significant growth
